From publication PMC5837813 (Bioorganic & medicinal chemistry letters, 2018) come the findings set out here.

One data set has as its target T1, human sEH (Homo sapiens, UniProt P34913).
T1 sequence (P34913 1-555): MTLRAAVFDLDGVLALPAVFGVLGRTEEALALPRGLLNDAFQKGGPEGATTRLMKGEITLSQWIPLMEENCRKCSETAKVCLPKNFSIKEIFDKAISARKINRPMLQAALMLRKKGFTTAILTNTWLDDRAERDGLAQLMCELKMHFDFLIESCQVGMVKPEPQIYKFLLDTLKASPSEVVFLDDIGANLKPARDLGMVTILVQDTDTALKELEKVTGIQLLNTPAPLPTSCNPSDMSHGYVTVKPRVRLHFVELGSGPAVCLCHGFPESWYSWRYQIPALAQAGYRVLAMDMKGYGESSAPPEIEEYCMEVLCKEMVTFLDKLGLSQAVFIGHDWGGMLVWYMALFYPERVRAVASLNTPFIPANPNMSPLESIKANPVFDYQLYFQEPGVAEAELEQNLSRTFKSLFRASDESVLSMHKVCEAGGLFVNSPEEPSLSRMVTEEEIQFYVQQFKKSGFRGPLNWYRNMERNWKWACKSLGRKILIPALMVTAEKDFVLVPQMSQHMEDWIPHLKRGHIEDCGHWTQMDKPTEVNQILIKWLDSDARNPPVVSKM
The data set is described as follows: recombinant human sEH inhibition, fluorescent-based substrate. In kind it is biochemical.

Data set [1] deals with T2, FAAH (Homo sapiens, UniProt O00519).
T2 sequence (O00519 1-579): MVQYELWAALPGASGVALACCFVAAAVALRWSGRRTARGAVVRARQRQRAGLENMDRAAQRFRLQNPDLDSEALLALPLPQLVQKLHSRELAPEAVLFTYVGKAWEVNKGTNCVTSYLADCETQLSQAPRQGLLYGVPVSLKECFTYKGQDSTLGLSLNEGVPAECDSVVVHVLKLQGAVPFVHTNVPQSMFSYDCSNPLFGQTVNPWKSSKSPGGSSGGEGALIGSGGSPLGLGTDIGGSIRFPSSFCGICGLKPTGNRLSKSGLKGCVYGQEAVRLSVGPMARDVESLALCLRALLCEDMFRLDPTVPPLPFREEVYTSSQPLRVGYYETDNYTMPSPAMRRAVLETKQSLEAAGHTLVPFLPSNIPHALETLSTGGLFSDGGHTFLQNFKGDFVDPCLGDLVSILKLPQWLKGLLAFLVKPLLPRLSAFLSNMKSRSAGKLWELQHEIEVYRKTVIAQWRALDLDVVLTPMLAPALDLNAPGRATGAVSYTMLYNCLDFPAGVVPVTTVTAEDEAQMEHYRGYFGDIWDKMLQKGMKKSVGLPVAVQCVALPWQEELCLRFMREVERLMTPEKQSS
The data set is described as follows: biochemical.

Data set [2] deals with FAAH. The data set is described as follows: block of activity in brain microsomes of the different species tested.
Data set [3] deals with T2, FAAH. Particulars: pre-incubated with FAAH at various time intervals, [S]final = 5 µM.

The IC50 is the concentration that gives 50% inhibition.

Each structure is given as a SMILES string.

For the molecule `O=C(Nc1cccnc1)N1CCC(Cc2cccc(Oc3ccc(C(F)(F)F)cn3)c2)CC1` [PF-3845, N-(pyridin-3-yl)-4-(3-((5-(trifluoromethyl)pyridin-2-yl)oxy)benzyl)piperidine-1-carboxamide], the IC50 was above 10000 nM at human sEH and 0.6 nM at FAAH [1]. Moreover, the “activity blocked in the microsomes” value in the data set with FAAH [2] is on record as above 80%.

Consider `NC(=O)c1cccc(-c2cccc(OC(=O)NC3CCCCC3)c2)c1` [URB597, 3'-carbamoyl-[1-1'-biphenyl]-3-yl cyclohexylcarbamate], for which, on FAAH [3], the “change of FAAH potency with pre-incubation time (in words)” value is “time dependent”.
